According to ChEMBL document CHEMBL1158917, “Elabunin, a New Cytotoxic Triterpene from an East African Medicinal Plant, Elaeodendron buchananii” (1990):
Converted amounts (≈) assume the structure as drawn.

Tested on: L1210
Experiment: Cytotoxicity against mouse L1210 cells
Format: functional
Details: read-out: ED50 (the source's name)

`C=C(CCC=C(C)C)[C@H]1[C@H](O)C[C@]2(C)[C@@H]1CC[C@@H]1[C@@]3(C)CCC(=O)C(C)(C)[C@@H]3CC[C@]12C` [ELABUNIN] showed an EC50 of 1 µg/mL (≈ 2.27 µM).
